Molecules are shown by their SMILES.

Here are results for 2 compounds from paper PMC4595200 (BMC Plant Biology, 2015).

The target in the test is T1, truncated AtAPC2 (N-terminally truncated AtAPC2) (Arabidopsis thaliana, UniProt Q9FI43).
T1 construct: gene APC2; transmembrane carrier domain from residue 164 to C-terminus, EF-hand N-terminal domain removed, N-terminal His tag (pET16b), E. coli Rosetta 2 inclusion bodies, reconstituted in liposomes
T1 sequence (Q9FI43 164-487): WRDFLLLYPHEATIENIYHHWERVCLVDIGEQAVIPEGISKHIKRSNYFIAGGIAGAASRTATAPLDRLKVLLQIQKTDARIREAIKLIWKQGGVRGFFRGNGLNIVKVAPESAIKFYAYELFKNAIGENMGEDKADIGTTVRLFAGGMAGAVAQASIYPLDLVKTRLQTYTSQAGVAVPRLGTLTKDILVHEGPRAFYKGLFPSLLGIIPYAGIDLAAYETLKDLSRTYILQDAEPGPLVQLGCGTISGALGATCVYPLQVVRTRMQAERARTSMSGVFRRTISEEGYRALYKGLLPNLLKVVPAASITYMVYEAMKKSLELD
Nature of the test: radiolabelled uptake into proteoliposomes. Conditions: pH 7.5, 30 °C, labelled compound. It counts as biochemical.

With `Nc1ncnc2c1ncn2[C@@H]1O[C@H](COP(=O)(O)OP(=O)(O)O)[C@@H](O)[C@H]1O` [ADP], the “radiolabelled uptake into proteoliposomes” value (ADP import / ATP export (ATP-loaded), 5 min) is “ADP/ATP exchange of both, full-length and truncated, AtAPC2 variants remained more or less unaltered”.

For the compound `Nc1ncnc2c1ncn2[C@@H]1O[C@H](COP(=O)(O)OP(=O)(O)OP(=O)(O)O)[C@@H](O)[C@H]1O` [ATP], where the note is “ATP import / Pi export (Pi-loaded), 50 μM ATP”, the “radiolabelled uptake into proteoliposomes” value is reported as “ATP uptake measurements verified that truncated AtAPC2 is functional”.
